Measured values reported in patent US5985603A, “P2x receptor DNA and protein sequence” (Glaxo Group Limited, priority 1994, dated 1999).

Key:
[1] = biological target: T1, rat vas deferens P2X receptor (Rattus norvegicus, UniProt P47824); assay: electrophysiological recording in CHO cells stably transfected with rat vas deferens P2X receptor; assay type: cell-based; settings: up to 30 μM
T1 construct: cRNA in Xenopus oocytes; stably transfected CHO cells
T1 sequence (P47824 1-399): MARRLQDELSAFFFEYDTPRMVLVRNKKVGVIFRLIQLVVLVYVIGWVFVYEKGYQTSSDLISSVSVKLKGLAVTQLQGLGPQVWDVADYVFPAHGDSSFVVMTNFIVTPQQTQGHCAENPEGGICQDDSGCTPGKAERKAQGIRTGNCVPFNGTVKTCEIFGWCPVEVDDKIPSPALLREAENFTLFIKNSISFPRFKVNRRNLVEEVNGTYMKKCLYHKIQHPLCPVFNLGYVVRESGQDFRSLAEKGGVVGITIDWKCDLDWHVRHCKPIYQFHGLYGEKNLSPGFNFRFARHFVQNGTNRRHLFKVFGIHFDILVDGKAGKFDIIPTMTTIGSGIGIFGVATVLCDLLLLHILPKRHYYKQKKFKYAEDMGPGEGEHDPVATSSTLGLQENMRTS
Excerpt: CHO cells were stably transfected by a method used for other ion channels (Claudio, Meth. Enzymol. 207 391-408 (1992)). Transfection was confirmed by a) electro-physiological recording and b) radioligand binding. […] [^3 H]αβmethyleneATP binding was more than 600 cpm per million transfected cells with less than 80 cpm nonspecific binding.

[2] = tested on: P2X-purinoceptor; settings: cited from earlier work

For Nc1ncnc2c1ncn2[C@@H]1O[C@H](COP(=O)([O-])OP(=O)([O-])OP(=O)([O-])[O-])[C@@H](O)[C@H]1O.[Mg+2].[Mg+2] [ATP, adenosine 5'-triphosphate magnesium salt], the “rapidly desensitising inward currents, CHO cells responding” value [1] is listed as “rapidly desensitising inward currents in 14 of 14 CHO cells” and the “agonist potency order in whole tissue studies” value [2] is listed as “α,β,-meATP >>2MeSATP≥ATP”.
